Measured values as given in patent US20170029388A1, “Treatment of Neurodegenerative Diseases with Asparagine Endopeptidase (AEP) Inhibitors and Compositions Related Thereto” (INTERCONTINENTAL GREAT BRANDS LLC, priority 2014, published 2017).
pIC50: −log10 of the molar value.

Legend:
purified human AEP = molecular target: T1, purified human AEP (Homo sapiens, UniProt Q99538); test: AEP enzymatic assay with purified active enzyme (IC50); type: biochemical; settings: purified recombinant enzyme; read-out: IC50 toward AEP
T1 construct: tested with purified active AEP, IC50 values for the top 8 candidates were found; purchased Sino Biological
T1 sequence (Q99538 18-323 limits assumed): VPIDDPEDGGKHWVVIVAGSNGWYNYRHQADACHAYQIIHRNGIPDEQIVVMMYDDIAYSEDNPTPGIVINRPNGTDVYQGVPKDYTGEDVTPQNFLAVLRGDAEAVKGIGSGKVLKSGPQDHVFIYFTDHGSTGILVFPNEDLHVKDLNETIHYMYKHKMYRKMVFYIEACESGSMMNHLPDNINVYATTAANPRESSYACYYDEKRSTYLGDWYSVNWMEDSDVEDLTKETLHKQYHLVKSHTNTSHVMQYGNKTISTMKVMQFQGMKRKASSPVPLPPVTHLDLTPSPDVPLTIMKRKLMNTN
Experimental: FIG. 1 illustrates a high-throughput screening scheme. […] The hits were validated further with purified human AEP, and promising compounds were categorized into 8 groups. Compounds from each group were tested and the cytotoxicity and specificity were determined.
(§1) Purified recombinant enzyme was incubated with various concentrations of inhibitor in appropriate assay buffers in the presence of increasing concentrations of inhibitor. The formation of fluorescent product was monitored in duplicate reactions and the data was fit to appropriate equations to calculate the IC50 values.
(§2) To identify small-molecule inhibitors of AEP, a high-throughput screen was designed in conjunction with the Emory Chemical Biology Discovery Center. The screen incorporated mouse kidney lysates to assay a 54,384 compound library. […] Additional structural analysis and grouping allowed the compounds to be sorted into 8 distinct backbone families. […] The specificity of the compounds was also determined using four major cysteine proteases (FIG. 2).
AEP—50 nM enzyme was pre-incubated with inhibitor in assay buffer (50 mM Sodium Citrate pH 5.5, 0.1% CHAPS, 60 mM Na2HPO4, 1 mM EDTA) for 10 min at 37° C. The reaction was initiated upon addition of 10 μM Cbz-Ala-Ala-Asn-AMC (Bachem)).

Cathepsin-L = Cathepsin-L (Homo sapiens, UniProt P07711); test: Cathepsin-L enzymatic assay (specificity); type: biochemical
Sequence of Cathepsin-L (P07711 114-333, species assumed): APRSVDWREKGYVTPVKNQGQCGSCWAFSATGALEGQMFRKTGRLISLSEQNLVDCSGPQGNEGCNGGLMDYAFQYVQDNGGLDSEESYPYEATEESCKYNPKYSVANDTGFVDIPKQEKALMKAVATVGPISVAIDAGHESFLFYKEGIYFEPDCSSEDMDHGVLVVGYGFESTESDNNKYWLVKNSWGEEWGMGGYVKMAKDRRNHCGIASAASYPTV
Experimental: as §1, §2
Cathepsin-L—100 nM enzyme was pre-incubated with inhibitor in assay buffer (100 mM Sodium Acetate pH 5.5, 1 mM EDTA) for 10 min at 37° C. The reaction was initiated upon addition of 25 μM substrate (D-Val-Leu-Lys-AMC (Bachem)).

Cathepsin-S = molecular target: T2, Cathepsin-S (Homo sapiens, UniProt P25774); test: Cathepsin-S enzymatic assay (specificity); type: biochemical
T2 construct: purchased Athens Research and Technology
T2 sequence (P25774 115-331): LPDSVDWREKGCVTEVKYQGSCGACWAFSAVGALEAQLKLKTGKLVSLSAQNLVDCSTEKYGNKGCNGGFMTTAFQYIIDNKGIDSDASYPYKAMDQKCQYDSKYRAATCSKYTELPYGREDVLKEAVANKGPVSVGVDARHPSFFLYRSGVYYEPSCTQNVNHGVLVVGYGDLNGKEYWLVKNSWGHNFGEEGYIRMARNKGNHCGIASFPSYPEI
Experimental: as §1, §2
Cathepsin-S—100 nM enzyme was pre-incubated with inhibitor in assay buffer (100 mM NaH2PO4 pH 6.5, 100 mM NaCl) for 10 min at 37° C. The reaction was initiated upon addition of 25 μM substrate (Boc-Val-Leu-Lys-AMC (Bachem)).

Caspase-3 = molecular target: T3, Caspase-3 (Homo sapiens, UniProt P42574); test: Caspase-3 enzymatic assay (specificity); type: biochemical
T3 construct: purchased Millipore
T3 sequence (P42574 29-175 limits assumed, species assumed): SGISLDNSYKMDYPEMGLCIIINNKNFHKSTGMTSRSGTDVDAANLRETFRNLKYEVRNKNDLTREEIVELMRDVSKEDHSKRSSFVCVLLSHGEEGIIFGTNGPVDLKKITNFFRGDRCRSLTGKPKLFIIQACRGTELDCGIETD
T3 sequence (P42574 176-277 limits assumed, species assumed): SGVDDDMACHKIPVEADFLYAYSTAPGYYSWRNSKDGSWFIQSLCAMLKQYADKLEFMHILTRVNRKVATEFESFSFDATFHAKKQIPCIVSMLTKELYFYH
Experimental: as §1, §2
(§3) Caspase-3 and 8 —The enzyme was pre-incubated with inhibitor in assay buffer (100 mM HEPES pH 7.4, 0.1% CHAPS, 10% Sucrose) for 10 min at 37° C. The reaction was initiated upon addition of 25 μM substrate (Ac-Asp-Glu-Val-Asp-AMC (Bachem)).

Caspase-8 = molecular target: T4, Caspase-8 (Homo sapiens, UniProt Q14790); test: Caspase-8 enzymatic assay (specificity); type: biochemical
T4 construct: purchased Millipore
T4 sequence (Q14790 217-374 limits assumed, species assumed): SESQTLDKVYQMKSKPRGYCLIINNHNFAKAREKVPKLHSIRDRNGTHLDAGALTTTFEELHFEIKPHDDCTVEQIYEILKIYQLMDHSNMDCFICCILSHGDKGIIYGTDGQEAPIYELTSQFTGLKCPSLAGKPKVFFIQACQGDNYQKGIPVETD
T4 sequence (Q14790 385-479 limits assumed, species assumed): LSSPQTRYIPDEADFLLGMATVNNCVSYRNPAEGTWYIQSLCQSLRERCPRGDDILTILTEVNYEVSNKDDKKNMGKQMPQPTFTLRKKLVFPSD
Experimental: as §1, §2, §3

Caco-2 monolayer = Caco-2 monolayer permeability screen; type: in vitro ADME
Experimental: To explore the in vitro ADME profiles of the compounds, additional tests were conducted.

CYP3A4 = CYP3A4 (Homo sapiens, UniProt P08684); test: CYP inhibition screening, CYP3A4-Midazolam; type: in vitro ADME
Sequence of CYP3A4 (P08684 whole entry): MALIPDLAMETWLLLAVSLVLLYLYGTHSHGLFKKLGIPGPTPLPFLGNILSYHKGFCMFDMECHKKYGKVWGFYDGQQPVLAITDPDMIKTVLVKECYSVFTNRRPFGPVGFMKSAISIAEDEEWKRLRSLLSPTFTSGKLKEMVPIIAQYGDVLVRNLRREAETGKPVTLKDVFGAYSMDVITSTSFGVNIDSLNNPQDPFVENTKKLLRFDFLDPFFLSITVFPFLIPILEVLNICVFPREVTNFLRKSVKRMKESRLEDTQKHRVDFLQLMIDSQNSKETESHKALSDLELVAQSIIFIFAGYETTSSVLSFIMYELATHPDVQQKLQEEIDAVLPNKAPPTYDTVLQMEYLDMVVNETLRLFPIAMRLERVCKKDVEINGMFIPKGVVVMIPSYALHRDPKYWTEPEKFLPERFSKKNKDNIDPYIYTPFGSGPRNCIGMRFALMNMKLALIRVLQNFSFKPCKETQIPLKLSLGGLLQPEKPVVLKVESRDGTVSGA

CYP3A = test: CYP inhibition screening, CYP3A-Testosterone; type: in vitro ADME
CYP2C9 = CYP2C9 (Homo sapiens, UniProt P11712); test: CYP inhibition screening, CYP2C9; type: in vitro ADME
Sequence of CYP2C9 (P11712 whole entry): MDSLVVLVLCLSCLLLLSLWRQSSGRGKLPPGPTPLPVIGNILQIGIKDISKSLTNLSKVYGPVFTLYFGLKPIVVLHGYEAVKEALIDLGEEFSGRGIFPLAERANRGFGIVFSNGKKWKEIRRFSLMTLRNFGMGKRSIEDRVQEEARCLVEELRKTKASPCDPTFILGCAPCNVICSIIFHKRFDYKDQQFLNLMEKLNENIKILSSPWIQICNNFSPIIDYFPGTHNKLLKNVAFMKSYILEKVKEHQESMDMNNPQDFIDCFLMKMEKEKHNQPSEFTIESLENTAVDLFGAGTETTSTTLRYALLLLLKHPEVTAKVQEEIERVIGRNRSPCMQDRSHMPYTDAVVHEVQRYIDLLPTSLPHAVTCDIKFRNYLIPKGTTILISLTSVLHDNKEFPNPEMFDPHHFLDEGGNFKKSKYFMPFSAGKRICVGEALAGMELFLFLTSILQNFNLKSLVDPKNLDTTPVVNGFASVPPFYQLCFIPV

CYP2D6 = CYP2D6 (Homo sapiens, UniProt P10635); test: CYP inhibition screening, CYP2D6; type: in vitro ADME
Sequence of CYP2D6 (P10635 whole entry): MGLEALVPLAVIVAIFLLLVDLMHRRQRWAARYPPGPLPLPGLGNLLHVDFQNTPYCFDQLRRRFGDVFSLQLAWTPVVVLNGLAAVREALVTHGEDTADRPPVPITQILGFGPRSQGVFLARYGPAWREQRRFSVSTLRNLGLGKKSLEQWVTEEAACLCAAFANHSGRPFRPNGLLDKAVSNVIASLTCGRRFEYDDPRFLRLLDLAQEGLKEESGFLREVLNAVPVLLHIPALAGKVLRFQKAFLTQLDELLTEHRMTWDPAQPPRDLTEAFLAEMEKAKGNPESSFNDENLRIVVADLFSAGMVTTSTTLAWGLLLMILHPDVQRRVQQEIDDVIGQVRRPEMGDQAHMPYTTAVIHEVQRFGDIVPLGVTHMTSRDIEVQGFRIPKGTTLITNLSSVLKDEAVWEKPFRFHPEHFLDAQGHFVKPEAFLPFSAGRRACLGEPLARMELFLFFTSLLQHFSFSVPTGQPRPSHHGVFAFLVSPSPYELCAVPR

CYP2C19 = CYP2C19 (Homo sapiens, UniProt P33261); test: CYP inhibition screening, CYP2C19; type: in vitro ADME
Sequence of CYP2C19 (P33261 whole entry): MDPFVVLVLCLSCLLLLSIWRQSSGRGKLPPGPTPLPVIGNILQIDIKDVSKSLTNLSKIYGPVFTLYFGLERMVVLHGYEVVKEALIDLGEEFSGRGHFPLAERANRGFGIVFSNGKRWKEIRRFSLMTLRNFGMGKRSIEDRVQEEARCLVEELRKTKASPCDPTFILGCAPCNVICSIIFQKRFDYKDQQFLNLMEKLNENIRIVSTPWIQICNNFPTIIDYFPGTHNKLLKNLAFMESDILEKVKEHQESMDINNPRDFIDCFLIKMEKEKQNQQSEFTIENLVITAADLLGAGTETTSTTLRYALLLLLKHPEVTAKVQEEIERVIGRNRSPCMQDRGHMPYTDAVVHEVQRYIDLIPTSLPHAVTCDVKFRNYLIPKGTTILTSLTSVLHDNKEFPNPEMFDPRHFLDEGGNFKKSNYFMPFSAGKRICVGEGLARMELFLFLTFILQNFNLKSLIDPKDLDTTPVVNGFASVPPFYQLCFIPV

CYP1A2 = molecular target: T5, CYP1A2 (Homo sapiens, UniProt P05177); test: CYP inhibition screening, CYP1A2; type: in vitro ADME
T5 sequence (P05177 1-516): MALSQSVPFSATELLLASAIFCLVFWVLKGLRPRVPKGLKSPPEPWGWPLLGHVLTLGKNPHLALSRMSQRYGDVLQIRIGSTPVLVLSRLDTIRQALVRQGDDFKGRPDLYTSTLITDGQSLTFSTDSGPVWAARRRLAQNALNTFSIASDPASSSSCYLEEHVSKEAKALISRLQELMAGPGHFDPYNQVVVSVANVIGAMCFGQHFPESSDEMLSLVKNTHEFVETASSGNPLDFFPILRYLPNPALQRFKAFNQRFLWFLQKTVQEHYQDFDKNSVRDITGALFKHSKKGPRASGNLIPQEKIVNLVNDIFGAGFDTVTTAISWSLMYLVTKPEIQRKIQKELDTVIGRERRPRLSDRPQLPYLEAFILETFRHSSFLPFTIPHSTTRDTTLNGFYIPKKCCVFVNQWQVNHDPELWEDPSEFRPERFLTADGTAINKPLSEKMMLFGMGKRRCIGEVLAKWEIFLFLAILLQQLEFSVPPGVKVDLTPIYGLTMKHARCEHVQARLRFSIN

[1] = system: cleavage of the amyloid precursor protein (APP); test: OGD in primary cortical neurons, APP cleavage (immunoblot); type: cell-based; settings: 0.1 μM compound
Experimental: A. AEP activity, measured in primary neuronal cultures with 5 μM Cbz-Ala-Ala-Asn-AMC (x-axis denotes neurons were treated with 0.1 μM or 1.0 μM specified compound). B. Caspase activity, measured in primary neuronal cultures with 5 μM Ac-Asp-Glu-Val-Asp-AMC. C. Cathepsin activity, measured in primary neuronal cultures with 5 μM D-Val-Leu-Lys-AMC. D. Inhibition of APP cleavage. Lysates of primary cortical neurons pre-incubated with compounds for 30 min, underwent OGD for 4 hrs, were reperfused for 18 hrs (normoxia neurons remained at normoxic conditions). E. APP can be cleaved in a dose-dependent manner. Lysates of primary cortical neurons pre-incubated with compounds for 30 min, underwent OGD for 4 hrs, were reperfused for 18 hrs (normoxia neurons remained at normoxic conditions).
Depriving cells of oxygen and glucose is a cellular model that is employed to trigger acidosis in cultured cells. The efficacy of the compounds in a cellular model of oxygen-glucose deprivation (OGD) was determined in an effort to mimic the effects of stroke in primary cultured neurons. As a result of depriving neurons of oxygen and glucose-containing medium, AEP activity was doubled (FIG. 7A, ‘DMSO-Norm’ compared to ‘DMSO-OGD’), while Caspase-3 and Cathepsin activities remained relatively unchanged. […] Cleavage of APP is observed in response to only DMSO treatment (FIG. 7D, lane 2), and it appears that upon the treatment of 1 μM of compounds 10, 11, and 12, and just 0.1 μM of compounds 31, 38 and 64, the cleavage was blocked, presumably due to AEP inhibition.
Compounds were pre-incubated with primary culture neurons, DIV13, for 30 min. The medium was exchanged for glucose-free DMEM and neurons were de-gased and incubated at 37° C., 95% N2/5% CO2 for 4 hrs with compounds. The medium was exchanged for DMEM and supplemented with compounds, then neurons were reperfused for 18 hrs under normoxic conditions. The neuronal lysates were prepared for AEP, Caspase-3 and Cathepsin assays. Moreover, immunoblotting analysis was conducted with the neuronal lysates using anti-APP, anti-AEP antibodies.

[2] = PAMPA
[3] = Liver microsomal stability, human; settings: human liver microsomes
[4] = Liver microsomal stability, mouse; settings: mouse liver microsomes

Compound	A -> B Papp (Caco-2 monolayer; Caco-2)	B -> A Papp (Caco-2 monolayer; Caco-2)	CYP inhibition, CYP3A4-Midazolam (CYP3A4; test concentration 3 μM)	CYP inhibition, CYP3A4-Midazolam (CYP3A4; test concentration 10 μM)	CYP inhibition, CYP3A-Testosterone (CYP3A; test concentration 3 μM)	CYP inhibition, CYP3A-Testosterone (CYP3A; test concentration 10 μM)	CYP inhibition, CYP2C9 (CYP2C9; test concentration 3 μM)	CYP inhibition, CYP2C9 (CYP2C9; test concentration 10 μM)	CYP inhibition, CYP2D6 (CYP2D6; test concentration 3 μM)	CYP inhibition, CYP2D6 (CYP2D6; test concentration 10 μM)	CYP inhibition, CYP2C19 (CYP2C19; test concentration 3 μM)	CYP inhibition, CYP2C19 (CYP2C19; test concentration 10 μM)	CYP inhibition, CYP1A2 (CYP1A2; test concentration 3 μM)	CYP inhibition, CYP1A2 (CYP1A2; test concentration 10 μM)	cleavage of APP after OGD [1]	further results
CCN(CC)c1ccc(CN2CCc3nc(C)[nH]c(=O)c3C2)c(OC)c1 [Compound 64]	<LLOQ	<LLOQ	0.6%	10.1%	1.5%	−0.1%	4.6%	7.9%	34.6%	58.3%	31.6%	20.4%	23.7%	22.2%	blocked	pIC50 (purified human AEP): 5.63; selectivity for AEP over Cathepsin-L (Cathepsin-L): over 40 fold; selectivity for AEP over Cathepsin-S (Cathepsin-S): over 40 fold; selectivity for AEP over Caspase-3 (Caspase-3): about 6 fold; selectivity for AEP over Caspase-8 (Caspase-8): over 40 fold
COc1ccc(N2CCN(C(c3ccc(N(C)C)cc3)c3nnnn3C(C)(C)C)CC2)cc1 (stereo not drawn) [Compound 31]	19.3 10^−6 cm · s^−1	17.4 10^−6 cm · s^−1	−0.9%	18.1%	2.5%	0.7%	47.8%	69.2%	9.9%	1.4%	37.7%	55.7%	13.5%	10.3%	blocked	Caco-2 permeability (in words) (Caco-2 monolayer): highly permeable; RE (Caco-2 monolayer; Caco-2): 0.9; Pe [2]: <LLOQ; Mean Remaining Parent (NADPH-free) [3]: 75%; Mean Remaining Parent (with NADPH) ([3]; 30 min of incubation): 12%; Mean Remaining Parent (NADPH-free) [4]: 86%; Mean Remaining Parent (with NADPH) [4]: 16%
